{"source": "paper PMC6950571", "about": "(Marine Drugs, 2019)", "target": "T1, rα3β2 nAChRs expressed in Xenopus laevis oocytes (Rattus norvegicus, UniProt P04757+P12390)", "T1 construct": "expressed in transfected cells; host or cells: Xenopus laevis oocytes, injected with α3 and β2 mRNA; clones from Dr. Steven Heinemann, Salk Institute", "T1 sequence (P04757 26-499 limits assumed)": "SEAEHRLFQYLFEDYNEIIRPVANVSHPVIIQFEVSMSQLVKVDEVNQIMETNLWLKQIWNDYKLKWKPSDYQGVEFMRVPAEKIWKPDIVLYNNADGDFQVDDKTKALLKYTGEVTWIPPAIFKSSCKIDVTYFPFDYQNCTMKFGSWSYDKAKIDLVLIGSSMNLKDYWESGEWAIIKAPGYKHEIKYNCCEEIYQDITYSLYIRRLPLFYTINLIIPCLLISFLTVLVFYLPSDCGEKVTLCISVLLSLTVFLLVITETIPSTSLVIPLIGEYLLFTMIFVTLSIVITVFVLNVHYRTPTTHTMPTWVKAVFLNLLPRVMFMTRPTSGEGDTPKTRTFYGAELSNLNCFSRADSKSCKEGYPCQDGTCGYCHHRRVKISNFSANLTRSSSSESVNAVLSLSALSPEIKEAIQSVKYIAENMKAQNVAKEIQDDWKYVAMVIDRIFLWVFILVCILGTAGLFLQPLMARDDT", "T1 sequence (P12390 25-500 limits assumed)": "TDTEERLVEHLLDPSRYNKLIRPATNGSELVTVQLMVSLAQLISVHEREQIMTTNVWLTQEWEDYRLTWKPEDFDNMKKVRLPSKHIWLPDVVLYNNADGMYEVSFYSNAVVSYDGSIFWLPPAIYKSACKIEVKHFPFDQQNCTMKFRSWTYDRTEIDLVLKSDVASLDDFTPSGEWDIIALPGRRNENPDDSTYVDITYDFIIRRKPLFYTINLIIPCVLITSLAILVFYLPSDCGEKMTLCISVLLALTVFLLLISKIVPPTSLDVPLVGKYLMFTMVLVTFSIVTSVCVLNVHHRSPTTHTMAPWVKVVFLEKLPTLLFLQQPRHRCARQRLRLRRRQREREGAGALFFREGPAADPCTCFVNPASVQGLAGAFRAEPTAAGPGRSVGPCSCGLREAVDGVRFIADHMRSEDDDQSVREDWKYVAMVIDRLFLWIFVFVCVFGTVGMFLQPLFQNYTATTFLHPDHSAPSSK", "experiment": "cell-based", "conditions": "SEM", "note": "Bridge positions count the residues as written; N and C are the ends. Peptide text beside a SMILES is read from it."}
{"smiles": "NCCCC[C@@H]1NC(=O)[C@H](CO)NC(=O)[C@H](CO)NC(=O)[C@H](CO)NC(=O)[C@H](Cc2c[nH]c3ccccc23)NC(=O)[C@H](Cc2ccc(O)cc2)NC(=O)[C@@H]2CSSC[C@H](NC(=O)[C@@H](NC(=O)[C@@H](N)Cc3c[nH]c4ccccc34)CSSC[C@@H](C(=O)O)NC(=O)[C@H](Cc3c[nH]c4ccccc34)NC1=O)C(=O)N[C@@H](CO)C(=O)N[C@@H](Cc1ccc(O)cc1)C(=O)N1CCC[C@H]1C(=O)NCC(=O)N2", "note": "[KTM] (H-WCCSYPGCYWSSSKWC-OH; disulfide 2-16, 3-8)", "values": [{"measurement": "IC50", "result": "0.19 ± 0.02", "unit": "nM"}]}
